Measurements from patent US20240207262A1, “PROPHYLACTIC AND/OR THERAPEUTIC AGENT FOR AMYOTROPHIC LATERAL SCLEROSIS” (NATIONAL UNIVERSITY CORPORATION TOKAI NATIONAL HIGHER …, priority 2021, published 2024).

Key:
[1] = Body weight of SOD1^G93A transgenic mice; assay type: in vivo, mouse; settings: 1 mg/kg/day in diet, vs control diet; 2-way ANOVA; trend toward limiting weight loss
Method: (§1) PF-04457845 was mixed in the diet, and administration started at 8 weeks of age. […] Drug efficacy analysis was conducted using body weight, motion analysis based on the Rotarod test (measured once a week), and survival analysis.
(§2) • Week 0: • Week 6: 1. Body weight, 2. Rotarod test (the method for measuring the motor function of mice) • Week 8: The drug (PF-04457845) was mixed with the diet, and administration started. • Week 9-10: Onset • Around week 17-20: Survival analysis
(§3) PF-04457845 was administered at a dose of 1 mg/kg/day. The dosage was determined based on a previous report on administration to rats (Ahn K et al. Journal of Pharmacology and Experimental Therapeutics 2011: 338; 114-124).

[2] = system: SOD1^G93A transgenic mice; experiment: Survival analysis in SOD1^G93A transgenic mice; assay type: in vivo, mouse; settings: 1 mg/kg/day mixed in diet from 8 weeks of age, vs control diet; log rank test p<0.001
Method: as §1
An ALS model animal with mutation of SOD1 gene, which is responsible for familial ALS, was used to conduct efficacy analysis of PF-04457845. The control was one that was free of the drug.
as §2, §3
In accordance with the method shown in FIG. 6, survival analysis was performed. • ♂ (male), PF-04457845: n=8, Control: […] • ♀ (female), PF-04457845: n=8, Control: n=13 • Log rank test p<0.001

[3] = system: NSC34 cells (mouse motor neuron) expressing TDP-43^A315T; experiment: WST cell viability assay, NSC34 cells transfected with TDP-43^A315T; assay type: cell-based; settings: for Viability (TDP-43^A315T): ratio of maximum viability to viability at 0 μM
Method: (§4) A pathological cell model was created by transient forced expression of the following genes in NSC34 cells (mouse motor neuron) by transfecting the cells with a plasmid using Lipofectamine 2000 (R) (Thermo Fisher Scientific), and changes in cell viability due to drug administration were analyzed by WST assay.
(§5) • Day 0: NSC 34 cell culture (DMEM FBS 10%) • Day 1: Transfection (Cells were transfected with a plasmid having the following genes inserted by using Lipofectamine 2000 (R) (Thermo Fisher Scientific).) • 1. Mock (unmutated cells: control plasmid-transfected cells) • 2. TDP-43^A315T: TDP-43 mutation model (reflecting human pathological conditions) • 3. SOD1^G93A: mutation SOD1 familial model (mutation common to humans and animal models) • Cell culture is continued afterward in FBS-free DMEM. • Day 4: Drug administration • Day 5: WST assay (Cell viability is measured to determine the effect of drug administration.)
(§6) Two types of cellular models were used to bridge the gap between SOD1 transgenic mouse models and sporadic ALS human pathological conditions (TDP-43 cell model).
(§7) The viability indicates the ratio of maximum viability to viability at 0 μM. The […] PF-04457845 yielded a viability about 1.3 times the viability with the existing drug riluzole (control) at a concentration one-tenth the concentration of riluzole.

[4] = system: SOD1^G93A transgenic mice; experiment: Rotarod test (motion analysis) in SOD1^G93A transgenic mice; assay type: in vivo, mouse; settings: 1 mg/kg/day in diet, vs control diet; 2-way ANOVA, p=0.002
Method: as §1, §2, §3

microglia = experiment: Spinal cord Iba-1 staining in SOD1^G93A transgenic mice; assay type: in vivo; settings: 16W treated vs 16W control mouse spinal cord
Method: as §1
(§8) A 16W PF-04457845-administered mouse spinal cord was compared with a 16W control-administered mouse spinal cord.

[5] = system: NSC34 cells (mouse motor neuron) expressing SOD1^G93A; experiment: WST cell viability assay, NSC34 cells transfected with SOD1^G93A; assay type: cell-based; settings: for Viability (SOD1^G93A): ratio of maximum viability to viability at 0 μM
Method: as §4, §5, §6, §7

[6] = system: mouse spinal cord motor neurons; experiment: Spinal cord ChAT staining (motor neurons) in SOD1^G93A transgenic mice; assay type: in vivo
Method: as §1
In accordance with the method shown in FIG. 6, the drug was administered, and the pathological specimens of mouse spinal cords in an advanced stage of the disease were subjected to ChAT staining (motor neuron).
19W and 22W PF-04457845-administered mouse spinal cords were compared with a 19W control-administered mouse spinal cord.
The photographs are of a 22W PF-04457845-administered mouse spinal cord and a 19W control-administered mouse spinal cord.
as §8
The photographs are of the 16W PF-04457845-administered mouse spinal cord and 16W control-administered mouse spinal cord.

astrocytes = experiment: Spinal cord GFAP staining in SOD1^G93A transgenic mice; assay type: in vivo; settings: 16W treated vs 16W control mouse spinal cord
Method: as §1, §8

NSC34 cells = experiment: WST cell viability assay, NSC34 ALS model cells (model not given); assay type: cell-based, mouse
Method: as §4, §5
The experimental conditions are those described in FIG. 3.

mouse spinal cords = experiment: Mouse spinal cord RNA sequencing (GO and IPA analysis) in SOD1^G93A transgenic mice; assay type: in vivo; settings: 16 weeks of age, drug diet vs control diet
Method: The experiment of PF-04457845 administration to SOD1^G93A transgenic mice was continued, and RNA sequencing of the spinal cord was performed on mice treated with a drug-infused diet and mice treated with a control diet, both at 16 weeks of age.
GO analysis: This is a method for analyzing a group of genes that have many variable genes when genes are grouped according to their functionality among mRNAs whose RNA sequences show changes.
IPA analysis: An analysis to explore the association of known pathways, upstream factors, and toxicity with disease.

SMILES | Body weight [1] | Survival period [2] | Improving cell viability, TDP-43 mutation (A315T) cell model ([3]; 10 nM) | Viability (TDP-43^A315T) ([3]; concentration 10 nM) | Rotarod test (motor function) [4] | Iba-1 staining: proliferation of microglia (microglia) | Improving cell viability, SOD1 (G93A) mutation cell model ([5]; 10 nM) | Viability (SOD1^G93A) ([5]; concentration 10 nM) | ChAT-positive motor neuron count in spinal cord ([6]; 16W treated mice vs 16W control mice) | ChAT-positive motor neuron count in spinal cord ([6]; 19W and 22W treated mice vs 19W control mice, advanced stage) | GFAP staining: proliferation of astrocytes (astrocytes) | Viability relative to the viability with riluzole (control) (NSC34 cells; at a concentration one-tenth the concentration of riluzole) | Improving effect on cell viability compared with other FAAH inhibitors (NSC34 cells; vs PF-3845, arachidonoyl serotonin, FAAH inhibitor II, conditions of FIG. 3) | Expression of CD36 in mouse spinal cords (mouse spinal cords) | Expression of Pla2g3 in mouse spinal cords (mouse spinal cords) | Expression of lipoprotein lipase (Lpl) in mouse spinal cords (mouse spinal cords) | IL-13 signaling pathway (IPA analysis) (mouse spinal cords) | Viability (TDP-43^A315T) ([3]; concentration 0.1 μM) | Viability (SOD1^G93A) ([5]; concentration 0.1 μM)
O=C(Nc1cccnn1)N1CCC(=Cc2cccc(Oc3ccc(C(F)(F)F)cn3)c2)CC1 [PF-04457845, N-pyridazin-3-yl-4-(3-{[5-(trifluoromethyl)pyridin-2-yl]oxy}benzylidene) piperidine-1-carboxamide] | no significant difference in body weight | effect of prolonging the survival period was observed | highly effective in improving the cell viability | 1.31 | significant progression-inhibiting effect | effect of inhibiting the proliferation of microglia | highly effective in improving the cell viability | 1.26 | effect of limiting the decrease in motor neuron count | effect of limiting the decrease in motor neuron count | effect of inhibiting the proliferation of astrocytes | about 1.3 times | more effective in improving cell viability | increased | decreased | increased | activation of IL-13 signaling pathway | – | –
Nc1nc2ccc(OC(F)(F)F)cc2s1 [Riluzole, riluzole] | – | – | – | – | – | – | – | – | – | – | – | – | – | – | – | – | – | 1.03 | 1.00
